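Tested at 5 concentrations; 48 h exposure; 96-well plates; endpoints linearly interpolated, else capped at highest concentration. Abbreviation: GI50, concentration required for 50% inhibition of growth.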 Active and inactive are the calls of the source. Cut-off read from the data, not from the text of the source: active = GI50 up to about 1.1 µM and inactive = higher.
Assays:
Test in all cases: NCI anticancer screen, dose series, 48 h
MDA-MB-231 = tested on: MDA-MB-231
MOLT-4 = tested on: MOLT-4
SNB-75 = tested on: SNB-75
IGROV-1 = tested on: IGROV-1
CCRF-CEM = tested on: CCRF-CEM
OVCAR-8 = tested on: OVCAR-8
HCT-116 = tested on: HCT-116
DU-145 = tested on: DU-145
EKVX = tested on: EKVX
ACHN = tested on: ACHN
NCI-H23 = tested on: NCI-H23
HOP-62 = tested on: HOP-62
786-0 = tested on: 786-0
NCI-H460 = tested on: NCI-H460
SNB-19 = tested on: SNB-19
UACC-62 = tested on: UACC-62
SK-MEL-28 = tested on: SK-MEL-28
PC-3 = tested on: PC-3
RXF 393 = tested on: RXF 393
UO-31 = tested on: UO-31

Row | SMILES | GI50 (MDA-MB-231) | GI50 (MOLT-4) | GI50 (SNB-75) | GI50 (IGROV-1) | GI50 (CCRF-CEM) | GI50 (OVCAR-8) | GI50 (HCT-116) | GI50 (DU-145) | GI50 (EKVX) | GI50 (ACHN) | GI50 (NCI-H23) | GI50 (HOP-62) | GI50 (786-0) | GI50 (NCI-H460) | GI50 (SNB-19) | GI50 (UACC-62) | GI50 (SK-MEL-28) | GI50 (PC-3) | GI50 (RXF 393) | GI50 (UO-31)
1 | Cc1cc2ccccc2n2c1nc1ccc(O)cc12 | > 10 µM (inactive) | 5.69 µM (inactive) | 5 µM (inactive) | > 10 µM (inactive) | > 10 µM (inactive) | 7.29 µM (inactive) | > 10 µM (inactive) | > 10 µM (inactive) | > 10 µM (inactive) | 9.91 µM (inactive) | > 10 µM (inactive) | > 10 µM (inactive) | > 10 µM (inactive) | 5.36 µM (inactive) | > 10 µM (inactive) | > 10 µM (inactive) | > 10 µM (inactive) | > 10 µM (inactive) | > 10 µM (inactive) | 
2 | CC(C)=CCNc1ncnc2c1ncn2CCC(=O)OC(C)(C)C | > 100 µM (inactive) | 14.2 µM (inactive) | 13 µM (inactive) | > 100 µM (inactive) | 22 µM (inactive) | > 100 µM (inactive) | > 100 µM (inactive) | > 100 µM (inactive) |  | > 100 µM (inactive) | > 100 µM (inactive) | > 100 µM (inactive) | > 100 µM (inactive) | > 100 µM (inactive) | > 100 µM (inactive) | 38.3 µM (inactive) | > 100 µM (inactive) | 34.8 µM (inactive) | 36.1 µM (inactive) | 22.7 µM (inactive)
3 | O=S(=O)(O)CCCC1S(=O)(=O)OCCOS1(=O)=O | > 100 µM (inactive) |  | 0.745 µM (active) | > 100 µM (inactive) |  | > 100 µM (inactive) | > 100 µM (inactive) | > 100 µM (inactive) | > 100 µM (inactive) | > 100 µM (inactive) | > 100 µM (inactive) | > 100 µM (inactive) | > 100 µM (inactive) | > 100 µM (inactive) | > 100 µM (inactive) | > 100 µM (inactive) | > 100 µM (inactive) | > 100 µM (inactive) | > 100 µM (inactive) | > 100 µM (inactive)
4 | Cc1ccc(C(=C2Sc3ccccc3S2)C(=C2Sc3ccccc3S2)c2ccc(C)s2)s1 | 42.8 µM (inactive) | > 100 µM (inactive) | > 100 µM (inactive) | > 100 µM (inactive) | > 100 µM (inactive) | > 100 µM (inactive) | > 100 µM (inactive) | > 100 µM (inactive) | > 100 µM (inactive) | > 100 µM (inactive) | > 100 µM (inactive) | > 100 µM (inactive) | > 100 µM (inactive) |  | > 100 µM (inactive) | > 100 µM (inactive) | > 100 µM (inactive) | > 100 µM (inactive) | > 100 µM (inactive) | > 100 µM (inactive)
5 | CCCN(CCCc1ccccc1)CCc1ccc2[nH]c(=S)[nH]c2c1 | 14.7 µM (inactive) | 11.3 µM (inactive) | 21.1 µM (inactive) | 14.1 µM (inactive) |  | 28.8 µM (inactive) | 13.1 µM (inactive) | 44.3 µM (inactive) | 58.9 µM (inactive) | 29.2 µM (inactive) | 40.6 µM (inactive) | 26.5 µM (inactive) | 12.6 µM (inactive) | 13.2 µM (inactive) | 26.1 µM (inactive) | 31 µM (inactive) | 20.1 µM (inactive) | 41.6 µM (inactive) | 11.2 µM (inactive) | 6.75 µM (inactive)
6 | FC(F)(F)c1ccc2c(c1)nc(-c1ccccc1)n2CC1CCCN2CCCCC12 (stereo not drawn) | 13.6 µM (inactive) | 25.9 µM (inactive) | 19.3 µM (inactive) | 18.3 µM (inactive) |  | 18.6 µM (inactive) | 16.4 µM (inactive) | 27 µM (inactive) | 29.2 µM (inactive) | 19.9 µM (inactive) |  | 27.5 µM (inactive) | 15.7 µM (inactive) | 19.6 µM (inactive) | 34.8 µM (inactive) | 16.6 µM (inactive) | 18.2 µM (inactive) | 15.3 µM (inactive) | 19 µM (inactive) | 0.27 µM (active)
7 | O=C(O)c1cc2c(cc1CC(Cc1ccccc1)C(=O)O)CCC2 (stereo not drawn) | > 100 µM (inactive) | > 100 µM (inactive) | > 100 µM (inactive) | > 100 µM (inactive) | > 100 µM (inactive) | > 100 µM (inactive) | > 100 µM (inactive) | > 100 µM (inactive) | > 100 µM (inactive) | > 100 µM (inactive) | > 100 µM (inactive) | > 100 µM (inactive) | > 100 µM (inactive) | > 100 µM (inactive) | > 100 µM (inactive) |  | > 100 µM (inactive) | > 100 µM (inactive) | > 100 µM (inactive) | > 100 µM (inactive)
8 | COC(=O)[C@]12CC[C@H]3CN(C(=O)OCc4ccccc4)[C@H]([C@H]31)[C@H](c1ccco1)N2S(=O)(=O)c1ccc(C)cc1 | 35 µM (inactive) | 21.8 µM (inactive) |  | 20.5 µM (inactive) | 11.4 µM (inactive) | 28.9 µM (inactive) | 14.9 µM (inactive) | 32.3 µM (inactive) | 44.4 µM (inactive) | 35.3 µM (inactive) | 24.7 µM (inactive) | 25.8 µM (inactive) | 17.5 µM (inactive) | 26.5 µM (inactive) | 34 µM (inactive) | 15 µM (inactive) | 39.2 µM (inactive) | 31 µM (inactive) | 18.2 µM (inactive) | 20.9 µM (inactive)
9 | N#Cc1ccccc1NC(=O)/C(=N\NC(=O)c1ccncc1)C(c1cnc2ccc([N+](=O)[O-])cc2n1)[N+](=O)[O-] (stereo not drawn) | > 100 µM (inactive) | 80 µM (inactive) | > 100 µM (inactive) | 95.9 µM (inactive) | 56.4 µM (inactive) | > 100 µM (inactive) | > 100 µM (inactive) |  | 53.1 µM (inactive) | 28 µM (inactive) | > 100 µM (inactive) | > 100 µM (inactive) | > 100 µM (inactive) | 64.6 µM (inactive) |  | > 100 µM (inactive) | > 100 µM (inactive) | > 100 µM (inactive) | > 100 µM (inactive) | 32.1 µM (inactive)
10 | CC1(C)Oc2ccc3c(=O)cc(-c4ccccc4)oc3c2C1C(=O)O (stereo not drawn) | > 100 µM (inactive) | > 100 µM (inactive) |  | > 100 µM (inactive) | > 100 µM (inactive) | > 100 µM (inactive) | > 100 µM (inactive) | > 100 µM (inactive) | > 100 µM (inactive) |  | > 100 µM (inactive) | > 100 µM (inactive) | > 100 µM (inactive) |  |  | > 100 µM (inactive) |  | > 100 µM (inactive) | > 100 µM (inactive) | 
11 | CC[C@H](C)C(=O)O[C@H]1CCC=C2C=C[C@H](C)[C@H](CC[C@@H]3C[C@@H](O)CC(=O)O3)[C@H]21 [MEVASTATIN] | 3.85 µM (inactive) | > 47.8 µM (inactive) | 2.07 µM (inactive) | 4.43 µM (inactive) |  | 8.26 µM (inactive) | 17.1 µM (inactive) | > 92.3 µM (inactive) | > 38.9 µM (inactive) | 3.88 µM (inactive) | 20.1 µM (inactive) | > 100 µM (inactive) | 13.3 µM (inactive) | 28 µM (inactive) | 16.4 µM (inactive) | 5.68 µM (inactive) | 60.7 µM (inactive) | 2.26 µM (inactive) | 14.3 µM (inactive) | 9.06 µM (inactive)
12 | CC(O[Si](C)(C)C(C)(C)C)[C@H](NC(=O)OCC(Cl)(Cl)Cl)C(=O)O (stereo partly drawn) | > 100 µM (inactive) | > 100 µM (inactive) |  | > 100 µM (inactive) | > 100 µM (inactive) | > 100 µM (inactive) | > 100 µM (inactive) | > 100 µM (inactive) | > 100 µM (inactive) | 55.1 µM (inactive) | 95.3 µM (inactive) | > 100 µM (inactive) | > 100 µM (inactive) | > 100 µM (inactive) | > 100 µM (inactive) | 53.5 µM (inactive) | > 100 µM (inactive) | > 100 µM (inactive) | > 100 µM (inactive) | > 100 µM (inactive)
13 | c1ccc([C@@H]2N[C@@]3(CO[Si](c4ccccc4)(c4ccccc4)c4ccccc4)CC[C@H]4CN[C@@H]2[C@H]43)cc1 | 11.8 µM (inactive) | 3.75 µM (inactive) |  | 12.8 µM (inactive) | 16 µM (inactive) | 13.1 µM (inactive) | 3.23 µM (inactive) | 10.2 µM (inactive) | 15.3 µM (inactive) | 13.7 µM (inactive) | 15.5 µM (inactive) | 16.6 µM (inactive) | 12.4 µM (inactive) | 10.4 µM (inactive) | 17.2 µM (inactive) | 14.3 µM (inactive) | 14.9 µM (inactive) | 9.06 µM (inactive) | 4.3 µM (inactive) | 10.8 µM (inactive)
14 | C=C1CC(Cn2ccc(=O)[nH]c2=O)(c2ccc(OC)cc2)OC1=O (stereo not drawn) | 16.6 µM (inactive) | 2.5 µM (inactive) | > 10 µM (inactive) | 15.7 µM (inactive) | 2.88 µM (inactive) | 20.1 µM (inactive) | 6.15 µM (inactive) | 17.4 µM (inactive) | 19.5 µM (inactive) | 18.7 µM (inactive) | 11.2 µM (inactive) | 47.4 µM (inactive) | 11.7 µM (inactive) | 40.6 µM (inactive) | > 68.4 µM (inactive) | 14.3 µM (inactive) | 18 µM (inactive) | 16 µM (inactive) |  | 17.2 µM (inactive)
